Several values for one entry are separate records, joined by “and”; a condition that tells them apart may be missing. Equal entries are not always repeated.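 In this assay, cells in 96-well plates receive the compound at five concentrations for 48 hours. Endpoints are linearly interpolated between the surrounding concentrations. Abbreviation: GI50, concentration required for 50% inhibition of growth. TGI is the concentration that stops growth completely.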
How the values were obtained:
Test in all cases: NCI tumour cell line growth inhibition, 48 h
SNB-19 CNS = system: SNB-19 CNS
ACHN renal = system: ACHN renal
HOP-92 NSCLC = system: HOP-92 NSCLC
NCI-H522 lung = system: NCI-H522 lung
NCI-H226 lung = system: NCI-H226 lung
COLO 205 colon = system: COLO 205 colon
SN12C renal = system: SN12C renal
HOP-62 NSCLC = system: HOP-62 NSCLC
SR leukemia = system: SR leukemia
OVCAR-5 ovarian = system: OVCAR-5 ovarian

SMILES	TGI (SNB-19 CNS)	TGI (ACHN renal)	TGI (HOP-92 NSCLC)	TGI (NCI-H522 lung)	TGI (NCI-H226 lung)	TGI (COLO 205 colon)	TGI (SN12C renal)	TGI (HOP-62 NSCLC)	TGI (SR leukemia)	TGI (OVCAR-5 ovarian)	GI50 (HOP-92 NSCLC)	GI50 (NCI-H522 lung)	GI50 (NCI-H226 lung)	GI50 (COLO 205 colon)	GI50 (OVCAR-5 ovarian)
COC(=O)C[C@H](COCc1ccccc1)NC(=O)C[C@H](COCc1ccccc1)NC(=O)C[C@H](COCc1ccccc1)NC(=O)OC(C)(C)C	> 100 µM	> 100 µM	73.5 µM	> 100 µM	> 100 µM	> 100 µM	> 100 µM	48 µM	> 100 µM	> 100 µM					
CSC(=S)N(C)NC(=O)c1cccc(C(=O)NN(C)C(=S)SC)n1	> 100 µM	> 100 µM	55 µM	40.1 µM	81.5 µM	> 100 µM	92 µM	37.3 µM	> 100 µM	> 100 µM					
COC(=O)C1(NC(=O)C(N)CC(=O)O)C(C)C1C (stereo not drawn)	> 100 µM	> 100 µM	> 100 µM	> 100 µM	> 100 µM	> 100 µM	> 100 µM	> 100 µM	> 100 µM	> 100 µM					
COC(=O)C1=C(OC(=O)/C(=C/c2ccc(Cl)cc2)c2ccccc2)C(C(=O)OC)[C@@]2(O)[C@@H](C(=O)OC)[C@H](C)C[C@@H]1[C@@H]2C(=O)OC (stereo partly drawn)	> 100 µM	> 100 µM	> 100 µM	> 100 µM	> 100 µM	> 100 µM	> 100 µM	> 100 µM	> 100 µM	> 100 µM					
CC(C)OC(=O)c1ccc(CCC2=CC(=O)C(Br)=CC2=O)cc1	29.2 µM	27.8 µM	24.9 µM	19.3 µM	71.9 µM	24.7 µM	31.1 µM	63.1 µM	> 100 µM	42.1 µM					
O=C1c2ccccc2C(=O)N1C(=S)c1ccccc1	> 100 µM	> 100 µM	> 100 µM	> 100 µM	> 100 µM	> 100 µM	> 100 µM	> 100 µM	> 100 µM	> 100 µM					
CCCCCC(/C=C/[C@@H]1CC(=O)C[C@H]1O[Si](C)(C)C(C)(C)C)OCOCCOC (stereo partly drawn)	12.9 µM	8.76 µM	6.03 µM	4.01 µM	18.8 µM	17.8 µM	24.1 µM	31.7 µM	6.37 µM	28.8 µM					
Sc1nnc(-c2ccccc2Nc2ccccc2-c2nnc(S)n2-c2ccccc2)n1-c1ccccc1	> 100 µM	> 100 µM	48.2 µM	81.8 µM	> 100 µM	> 100 µM	72.9 µM	> 100 µM	> 100 µM	> 100 µM					
Cc1nc2ccccc2c(=O)n1NC(=O)Cc1ccccc1	> 100 µM	> 100 µM	> 100 µM	> 100 µM	> 100 µM	> 100 µM	> 100 µM	> 100 µM	> 100 µM	> 100 µM					
CC(/C=N/NC1=NCCCCN1)=N\NC1=NCCCCN1	> 100 µM	> 100 µM	> 100 µM	> 100 µM	> 100 µM	57 µM	> 100 µM	> 100 µM	> 100 µM	> 100 µM					
Cc1cc(=O)c2c(O)c3c(O)cc(O)c4c5c(O)cc(O)c6c(O)c7c(=O)cc(C)c8c1c2c(c34)c(c65)c78	> 100 µM	> 100 µM	> 100 µM and 47.4 µM	> 100 µM and 44.2 µM	> 100 µM and 44.3 µM	> 100 µM	> 100 µM	> 73 µM	> 100 µM	> 100 µM and 45.3 µM	36.7 µM and 15.1 µM	> 100 µM and 19.4 µM	> 100 µM and 16.3 µM	> 100 µM	> 100 µM and 24.7 µM
Cc1ccccc1NC(=S)N/N=C(/c1ccccc1)c1ccccn1	16.5 µM	5.4 µM	13.2 µM	3.4 µM	1.66 µM	19.1 µM	10 µM	11.5 µM	> 21.2 µM	10.6 µM					
CCN(CC)C(=S)SNCCc1ccc(S(N)(=O)=O)cc1	50.9 µM	34.3 µM	35.1 µM	4.63 µM	> 84.7 µM	> 100 µM	27.2 µM	26.3 µM	> 49.4 µM	30.4 µM					
CC(C)C(/C=C/c1ccccc1)=N\NC(=O)N/N=C(/C=C/c1ccccc1)C(C)C	> 100 µM	> 100 µM	91.3 µM	58.6 µM	55.4 µM	44.3 µM	33.2 µM	> 100 µM	87.2 µM	> 100 µM					
CC1CCC2c3c([nH]c4ccccc34)C3C(=O)N(C4CCCCC4)C(=O)C3C2C1 (stereo not drawn)	32 µM	27.8 µM	44.9 µM	> 100 µM	36 µM	> 100 µM	> 100 µM	32.7 µM	> 100 µM	> 100 µM					
Cc1ccc([N+](=O)[O-])cc1S(=O)(=O)Nc1ccc(C2=NN(c3ccc([N+](=O)[O-])cc3[N+](=O)[O-])C(c3ccccc3O)C2)cc1 (stereo not drawn)	> 100 µM	> 100 µM	> 100 µM	83.1 µM	> 100 µM	> 100 µM	54 µM	> 100 µM	> 100 µM	> 100 µM					
Cc1ccc(O)c(Cc2nc3ccccc3nc2-c2cccc(Br)c2)c1	69.7 µM	> 100 µM	> 100 µM	> 100 µM	> 100 µM	> 100 µM	> 100 µM	> 100 µM	> 100 µM	> 100 µM					

SMILES	TGI (SNB-19 CNS)	TGI (ACHN renal)	TGI (HOP-92 NSCLC)	TGI (NCI-H522 lung)	TGI (NCI-H226 lung)	TGI (COLO 205 colon)	TGI (SN12C renal)	TGI (HOP-62 NSCLC)	TGI (SR leukemia)	TGI (OVCAR-5 ovarian)	GI50 (HOP-92 NSCLC)	GI50 (NCI-H522 lung)	GI50 (NCI-H226 lung)	GI50 (COLO 205 colon)	GI50 (OVCAR-5 ovarian)
CC(=O)Nc1ccc(-c2nnc(SCC(=O)Nc3ccccc3[N+](=O)[O-])o2)cc1		> 100 µM	> 100 µM	> 100 µM	> 100 µM	> 100 µM	> 100 µM	> 100 µM	> 100 µM	> 100 µM					
CC1=CC(=O)c2cccc(NC3=NCCO3)c21	> 100 µM	> 100 µM	77.7 µM	> 100 µM	87.2 µM	> 100 µM	> 100 µM	> 100 µM	91.6 µM	> 100 µM					
O=C(c1ccc(Cl)cc1)N(C(=S)N1CCN(c2ccccn2)CC1)c1ccccc1	> 100 µM	> 100 µM	> 100 µM	> 100 µM	> 100 µM	> 100 µM	> 100 µM	> 100 µM	> 100 µM	> 100 µM					
O=c1c2cc(-c3ccccc3)cnc2sn1-c1ccc([N+](=O)[O-])cc1	> 100 µM	> 100 µM	> 100 µM	75.4 µM	> 100 µM	> 100 µM	> 100 µM	81.7 µM	> 100 µM	> 100 µM					
Oc1[nH]c2ccccc2c1N=NC(=S)N1CCCCCC1	15.4 µM	8.73 µM	6.55 µM	12.6 µM	4.45 µM	6.2 µM	10.6 µM	4.09 µM	3.44 µM	12.4 µM					
C=CCC1NCCC2=C1C(S(=O)(=O)c1ccc(C)cc1)c1ccccc12 (stereo not drawn)	33.2 µM	24.3 µM	25.7 µM	26 µM	35.9 µM	4.29 µM	28.5 µM	28.2 µM	38.4 µM	33.2 µM					
Cc1ccc(S(=O)(=Nc2ccccc2)C(C(C)C)C(C)(C)Cl)cc1 (stereo not drawn)	> 50 µM	> 50 µM	> 50 µM	> 50 µM	45.9 µM	7.56 µM	> 50 µM	> 50 µM	49.7 µM	> 50 µM					
O=C(NCCO)c1c(O)c2ccccc2[nH]c1=O	> 100 µM	> 100 µM	> 100 µM	> 100 µM	> 100 µM	> 100 µM	> 100 µM	> 100 µM	> 100 µM	> 100 µM					
O=C(CCc1cc(O)cc(O)c1)NCCc1ccc(O)c(O)c1	> 100 µM	> 100 µM	> 100 µM	> 100 µM	> 100 µM	> 100 µM	> 100 µM	> 100 µM	> 100 µM	> 100 µM					
Cc1ccccc1NC(=S)N=Nc1c(O)[nH]c2ccccc12	> 100 µM	> 100 µM	> 100 µM	> 100 µM	> 100 µM	> 100 µM	> 100 µM	> 100 µM	> 100 µM	> 100 µM					
O=c1c2c([nH]c3cc4c(cc13)OCO4)-c1ccccc1CCC2	> 50 µM	> 50 µM	> 50 µM	> 50 µM	> 50 µM	> 50 µM	> 50 µM	> 50 µM	38.4 µM	> 50 µM					
COC(=O)c1ccc(C)cc1C1CN=NC12Cc1cc(C)c(C)cc1C2=O (stereo not drawn)	> 100 µM	> 100 µM	> 100 µM	78.4 µM	> 100 µM		> 100 µM	> 100 µM	> 100 µM	> 100 µM					
COc1cc2c3c(cc(Cl)nc3c1OC)C(O)(CC(C)=O)C(=O)N2 (stereo not drawn)	> 54.7 µM	> 54 µM	34.3 µM	26 µM	> 57.3 µM	> 100 µM	36.1 µM	> 59.8 µM	> 66.9 µM	> 56.4 µM					
CN(N)C(=O)NCCCl	> 100 µM	> 100 µM	> 100 µM	> 100 µM	6.42 µM	> 100 µM	> 100 µM	> 100 µM	> 100 µM	> 100 µM					
COc1ccc(N2C(=O)C3c4[nH]c5ccccc5c4C4CCC(C(C)C)CC4C3C2=O)cc1 (stereo not drawn)	> 100 µM	> 100 µM	> 100 µM	> 100 µM	> 100 µM	> 100 µM	> 100 µM	> 100 µM	> 100 µM	> 100 µM					
c1ccc(C(CCN2CCCC2)c2ccccn2)cc1 (stereo not drawn)	> 100 µM	> 100 µM	> 100 µM	> 100 µM	> 100 µM	> 100 µM	> 100 µM	> 100 µM	> 100 µM	> 100 µM					

Reference: PubChem BioAssay (NCI)
